The source of these data is EP4737454A1, “GLP-1 RECEPTOR AGONIST, AND PREPARATION METHOD THEREFOR AND USE THEREOF” (Wayne Biotechnology Co., Ltd., priority 2023, dated 2025).

Molecules are shown by their SMILES.

In general, EC50 refers to the midpoint of the concentration-response curve.

Human GLP-1R, sequence (P43220 24-463): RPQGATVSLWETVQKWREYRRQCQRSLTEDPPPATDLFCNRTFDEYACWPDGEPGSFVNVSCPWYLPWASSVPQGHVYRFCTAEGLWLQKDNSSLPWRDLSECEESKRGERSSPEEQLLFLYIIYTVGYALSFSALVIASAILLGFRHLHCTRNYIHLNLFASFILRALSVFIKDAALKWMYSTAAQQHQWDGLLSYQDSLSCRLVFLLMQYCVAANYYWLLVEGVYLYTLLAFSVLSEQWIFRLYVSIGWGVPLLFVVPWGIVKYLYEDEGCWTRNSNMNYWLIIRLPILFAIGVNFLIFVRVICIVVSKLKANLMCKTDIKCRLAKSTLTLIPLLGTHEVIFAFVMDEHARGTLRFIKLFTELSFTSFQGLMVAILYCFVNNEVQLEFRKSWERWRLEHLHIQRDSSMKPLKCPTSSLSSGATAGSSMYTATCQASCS

The experiment has as its target Human GLP-1R (Homo sapiens, UniProt P43220). Nature of the experiment: cAMP level determination in human GLP-1R stably transfected HEK293T cells (HTRF cAMP kit). It counts as cell-based. The conditions noted are these: 37°C 30 min. Here is the method:
Human GLP-1R HEK293T stably transfected cells were digested with trypsin, terminated with DMEM total (without p/s), centrifuged and washed twice with 1X Stimulation buffer, then resuspended in 1X stimulation buffer and counted. The cells were then prepared as a 1 Million/mL cell suspension in stimulation buffer. Compound powder was first prepared as a 10 mM stock solution in DMSO, then diluted to 2 mM with DMSO, and further prepared as 2X compound in 1X stimulation buffer (Cisbio kit buffer with freshly added IBMX at a final concentration of 0.5 mM). The top dose final concentration was 2000 nM, with a final DMSO concentration of 0.2%, diluted in a 1:3 gradient for 11 gradients.
According to the layout, 5 µl of compound was added to each well; Min wells contained 100 nM GLP-1, and Max wells contained 0.2% DMSO in 1X stimulation buffer. 5 µl of cell suspension was added to each well, centrifuged at 300 rpm at room temperature for 1 min, then incubated at 37°C for 30 min. 2X cAMP standards were prepared in 1X Stimulation buffer, with a top final concentration of 2.8 µM, diluted in a 1:3 gradient for 12 doses. According to the layout, 10 µl was added to each well. Finally, d2 and antibody were diluted 20-fold in 1X Detection buffer (Cisbio kit buffer), and 5 µl of each was added to each well according to the layout. After centrifugation at 300 rpm at room temperature for 1 min, the plate was incubated at room temperature for 2 hr.
Stimulation% was calculated based on Min and Max readings (665nm/615nm ratio) using the formula: 100*(ratio Max well - ratio test well)/(ratio Max well - ratio Min well). The cAMP concentration in each test well was derived from the cAMP standard curve, and the data was analyzed using GraphPad Prism 9 to plot four-parameter fit curves and calculate EC50 values using the formula: Y=Bottom + (Top-Bottom)/(1+10^((LogEC50-X)*HillSlope)). Table 1: cAMP Level Determination in Human GLP-1R Stably Transfected HEK293T Cells
In turn, `Cc1cc(-n2nc3c(c2-n2ccn(-c4ccc(C#N)c(OC(F)(F)F)c4)c2=O)[C@H](C)N(C(=O)c2cc4cc(C5CCOC(C)(C)C5)ccc4n2[C@@]2(c4nc(=O)o[nH]4)C[C@@H]2C)CC3)cc(C)c1F` (some centres unmarked) [Compound 78] yielded an EC50 of 20.3 nM.

Compound `Cc1cc(-n2nc3c(c2-n2ccn(-c4ccc(N(C)C(=O)C5CC5)c(Cl)c4F)c2=O)[C@H](C)N(C(=O)c2cc4cc([C@H]5CCOC(C)(C)C5)ccc4n2[C@@]2(c4nc(=O)o[nH]4)C[C@@H]2C)CC3)cc(C)c1F` [Compound 73] registered an EC50 of 6.25 nM.

The compound `Cc1cc(-n2nc3c(c2-n2ccn(-c4ccc(C(=O)N(C)C5CCC5)cc4)c2=O)[C@H](C)N(C(=O)c2cc4cc(C5CCOC(C)(C)C5)ccc4n2[C@@]2(c4nc(=O)o[nH]4)C[C@@H]2C)CC3)cc(C)c1F` (some centres unmarked) [Compound 21] gave an EC50 of 14.4 nM.

Regarding `Cc1cc(-n2nc3c(c2-n2ccn(-c4ccc(N(C)C(=O)C5CC5)c(F)c4)c2=O)[C@H](C)N(C(=O)c2cc4cc(C5CCOC(C)(C)C5)ccc4n2[C@@]2(c4noc(=O)[nH]4)C[C@@H]2C)CC3)cc(C)c1F` (some centres unmarked) [Compound 63], the EC50 was 8.69 nM.

`Cc1cc(-n2nc3c(c2-n2ccn(-c4c(F)cccc4C(=O)N(C)C4CC4)c2=O)[C@H](C)N(C(=O)c2cc4cc(C5CCOC(C)(C)C5)ccc4n2[C@@]2(c4nc(=O)o[nH]4)C[C@@H]2C)CC3)cc(C)c1F` (some centres unmarked) [Compound 40] gave a concentration for a half-maximal effect (EC50) of 155 nM.

Turning to `Cc1cc(-n2nc3c(c2-n2ccn(-c4ccc(C(=O)N(C)C5CC5)c(OC(F)(F)F)c4F)c2=O)[C@H](C)N(C(=O)c2cc4cc([C@H]5CCOC(C)(C)C5)ccc4n2[C@@]2(c4nc(=O)o[nH]4)C[C@@H]2C)CC3)cc(C)c1F` [Compound 54], the EC50 came out at 4.48 nM.

As for `Cc1cc(-n2nc3c(c2-n2ccn(-c4ccc5c(c4)CCN(C4CC4)C5=O)c2=O)[C@H](C)N(C(=O)c2cc4cc(C5CCOC(C)(C)C5)ccc4n2[C@@]2(c4nc(=O)o[nH]4)C[C@@H]2C)CC3)cc(C)c1F` (some centres unmarked) [Compound 55], the concentration giving a half-maximal response (EC50) amounted to 8.07 nM.

Consider `Cc1cc(-n2nc3c(c2-n2ccn(-c4ccc(N(C)C5CC5)c(Cl)c4)c2=O)[C@H](C)N(C(=O)c2cc4cc(C5CCOC(C)(C)C5)ccc4n2[C@@]2(c4nc(=O)o[nH]4)C[C@@H]2C)CC3)cc(C)c1F` (some centres unmarked) [Compound 67], for which the EC50 was 67.8 nM.

`CCc1cc(-n2ccn(-c3c4c(nn3-c3cc(C)c(F)c(C)c3)CCN(C(=O)c3cc5cc([C@H]6CCOC(C)(C)C6)ccc5n3[C@@]3(c5nc(=O)o[nH]5)C[C@@H]3C)[C@H]4C)c2=O)ccc1C(=O)N(C)C1CC1` [Compound 8] returned an EC50 of 4.75 nM.

In turn, `Cc1cc(-n2nc3c(c2-n2ccn(-c4ccc(C#N)nc4)c2=O)[C@H](C)N(C(=O)c2cc4cc(C5CCOC(C)(C)C5)ccc4n2[C@@]2(c4nc(=O)o[nH]4)C[C@@H]2C)CC3)cc(C)c1F` (some centres unmarked) [Compound 91] yielded an EC50 of 38.4 nM.

The compound `Cc1cc(-n2nc3c(c2-n2ccn(-c4ccc(C(=O)N(C)C5(C(F)(F)F)CC5)cc4)c2=O)[C@H](C)N(C(=O)c2cc4cc(C5CCOC(C)(C)C5)ccc4n2[C@@]2(c4nc(=O)o[nH]4)C[C@@H]2C)CC3)cc(C)c1F` (some centres unmarked) [Compound 16] returned an EC50 of 10 nM.

As for `Cc1cc(-n2nc3c(c2-n2ccn(-c4ccc5c(c4F)CCS5(=O)=O)c2=O)[C@H](C)N(C(=O)c2cc4cc(C5CCOC(C)(C)C5)ccc4n2[C@@]2(c4nc(=O)o[nH]4)C[C@@H]2C)CC3)cc(C)c1F` (some centres unmarked) [Compound 60], it took 10.6 nM to reach a half-maximal effect (EC50).

`Cc1cc(-n2nc3c(c2-n2ccn(-c4ccc(N(C)C(=O)C5CCC5)c(F)c4)c2=O)[C@H](C)N(C(=O)c2cc4cc([C@H]5CCOC(C)(C)C5)ccc4n2[C@@]2(c4nc(=O)o[nH]4)C[C@@H]2C)CC3)cc(C)c1F` [Compound 72]: the EC50 was found to be 9.71 nM.

For `Cc1cc(-n2nc3c(c2-n2ccn(-c4ccc(C(=O)N(C)C5CC5)c(C#N)c4)c2=O)[C@H](C)N(C(=O)c2cc4cc([C@H]5CCOC(C)(C)C5)ccc4n2[C@@]2(c4nc(=O)o[nH]4)C[C@@H]2C)CC3)cc(C)c1F` [Compound 9], a half-maximal effect (EC50) was put at 4.85 nM.

The compound `Cc1cc(-n2nc3c(c2-n2ccn(-c4ccc(C(=O)N(C)C5CC5)nc4)c2=O)[C@H](C)N(C(=O)c2cc4cc(C5CCOC(C)(C)C5)ccc4n2[C@@]2(c4nc(=O)o[nH]4)C[C@@H]2C)CC3)cc(C)c1F` (some centres unmarked) [Compound 24] registered an EC50 of 54.2 nM.

For the compound `C[C@H]1c2c(nn(-c3ccc(F)c(OC(F)(F)F)c3)c2-n2ccn(-c3ccc4c(cnn4C)c3F)c2=O)CCN1C(=O)c1cc2cc(C3CCOC(C)(C)C3)ccc2n1[C@@]1(c2nc(=O)o[nH]2)C[C@@H]1C` (some centres unmarked) [Compound 4], it took 34.3 nM to reach a half-maximal effect (EC50).

For the compound `Cc1cc(-n2nc3c(c2-n2ccn(-c4ccc(C(=O)N(C)CC#N)cc4)c2=O)[C@H](C)N(C(=O)c2cc4cc(C5CCOC(C)(C)C5)ccc4n2[C@@]2(c4nc(=O)o[nH]4)C[C@@H]2C)CC3)cc(C)c1F` (some centres unmarked) [Compound 44], a half-maximal response (EC50) required 16.9 nM.

In turn, `Cc1cc(-n2nc3c(c2-n2ccn(-c4ccc(N(C)C5CC5)cc4C(F)(F)F)c2=O)[C@H](C)N(C(=O)c2cc4cc(C5CCOC(C)(C)C5)ccc4n2[C@@]2(c4nc(=O)o[nH]4)C[C@@H]2C)CC3)cc(C)c1F` (some centres unmarked) [Compound 65] came in with an EC50 of 648 nM.

As to `Cc1cc(-n2nc3c(c2-n2ccn(-c4ccc5c(c4)CCS5(=O)=O)c2=O)[C@H](C)N(C(=O)c2cc4cc([C@@H]5CCOC(C)(C)C5)ccc4n2[C@@]2(c4nc(=O)o[nH]4)C[C@@H]2C)CC3)cc(C)c1F` [Compound 56a], the response was half-maximal at 241 nM (EC50).

As to `Cc1cc(-n2nc3c(c2-n2ccn(-c4ccc(C(=O)N(C)C5CC5)c(C)c4F)c2=O)[C@H](C)N(C(=O)c2cc4cc([C@H]5CCOC(C)(C)C5)ccc4n2[C@@]2(c4nc(=O)o[nH]4)C[C@@H]2C)CC3)cc(C)c1F` [Compound 17], the EC50 worked out at 8.97 nM.

`Cc1cc(-n2nc3c(c2-n2ccn(-c4ccc(C#N)cc4F)c2=O)[C@H](C)N(C(=O)c2cc4cc([C@H]5CCOC(C)(C)C5)ccc4n2[C@@]2(c4nc(=O)o[nH]4)C[C@@H]2C)CC3)cc(C)c1F` [Compound 81b] came in with an EC50 of 3.92 nM.

`Cc1cc(-n2nc3c(c2-n2ccn(-c4ccc(C#N)cc4F)c2=O)[C@H](C)N(C(=O)c2cc4cc(C5CCOC(C)(C)C5)ccc4n2[C@@]2(c4nc(=O)o[nH]4)C[C@@H]2C)CC3)cc(C)c1F` (some centres unmarked) [Compound 81] displayed an EC50 of 11 nM.

In the case of `Cc1cc(-n2nc3c(c2-n2ccn(-c4cnc(C(=O)N(C)C5CC5)nc4)c2=O)[C@H](C)N(C(=O)c2cc4cc(C5CCOC(C)(C)C5)ccc4n2[C@@]2(c4nc(=O)o[nH]4)C[C@@H]2C)CC3)cc(C)c1F` (some centres unmarked) [Compound 32], a half-maximal response (EC50) required 79.7 nM.

As to `Cc1cc(-n2nc3c(c2-n2ccn(-c4ccc(C#N)c(F)c4)c2=O)[C@H](C)N(C(=O)c2cc4cc([C@H]5CCOC(C)(C)C5)ccc4n2[C@@]2(c4nc(=O)o[nH]4)C[C@@H]2C)CC3)cc(C)c1F` [Compound 82b], the EC50 was 6.4 nM.

On to `Cc1cc(-n2nc3c(c2-n2ccn(-c4cc(F)c(C#N)cc4F)c2=O)[C@H](C)N(C(=O)c2cc4cc(C5CCOC(C)(C)C5)ccc4n2[C@@]2(c4nc(=O)o[nH]4)C[C@@H]2C)CC3)cc(C)c1F` (some centres unmarked) [Compound 83], for which the EC50 turned out to be 12.8 nM.

Take `Cc1cc(-n2nc3c(c2-n2ccn(-c4ccc(C#N)c(OC(F)F)c4)c2=O)[C@H](C)N(C(=O)c2cc4cc(C5CCOC(C)(C)C5)ccc4n2[C@@]2(c4nc(=O)o[nH]4)C[C@@H]2C)CC3)cc(C)c1F` (some centres unmarked) [Compound 95]: the midpoint of the response, the EC50, lay at 17.6 nM.

In turn, `Cc1cc(-n2nc3c(c2-n2ccn(-c4ccc(C(=O)N(C)C5CC5)cc4C#N)c2=O)[C@H](C)N(C(=O)c2cc4cc(C5CCOC(C)(C)C5)ccc4n2[C@@]2(c4nc(=O)o[nH]4)C[C@@H]2C)CC3)cc(C)c1F` (some centres unmarked) [Compound 36] showed an EC50 of 67.8 nM.

Compound `Cc1cc(-n2nc3c(c2-n2ccn(-c4ccc(C(=O)N(C(C)C)C5CC5)cc4)c2=O)[C@H](C)N(C(=O)c2cc4cc(C5CCOC(C)(C)C5)ccc4n2[C@@]2(c4nc(=O)o[nH]4)C[C@@H]2C)CC3)cc(C)c1F` (some centres unmarked) [Compound 25] showed an EC50 of 11.8 nM.

In the case of `Cc1cc(-n2nc3c(c2-n2ccn(-c4ccc(OC(F)(F)F)c(C(=O)N(C)C5CC5)c4)c2=O)[C@H](C)N(C(=O)c2cc4cc(C5CCOC(C)(C)C5)ccc4n2[C@@]2(c4nc(=O)o[nH]4)C[C@@H]2C)CC3)cc(C)c1F` (some centres unmarked) [Compound 38], the midpoint of the response, the EC50, lay at 18.1 nM.

`Cc1cc(-n2nc3c(c2-n2ccn(-c4ccc(C(=O)N(C)C5CC5)cn4)c2=O)[C@H](C)N(C(=O)c2cc4cc(C5CCOC(C)(C)C5)ccc4n2[C@@]2(c4nc(=O)o[nH]4)C[C@@H]2C)CC3)cc(C)c1F` (some centres unmarked) [Compound 29]: the half-maximal effective concentration (EC50) came to 102 nM.

Consider `Cc1cc(-n2nc3c(c2-n2ccn(-c4ccc(N(C)C(=O)C5CC5)cc4Cl)c2=O)[C@H](C)N(C(=O)c2cc4cc([C@H]5CCOC(C)(C)C5)ccc4n2[C@@]2(c4nc(=O)o[nH]4)C[C@@H]2C)CC3)cc(C)c1F` [Compound 77], for which a half-maximal response (EC50) required 6.19 nM.

The compound `Cc1cc(-n2nc3c(c2-n2ccn(-c4ccc(C(=O)N5CCC5)c(F)c4)c2=O)[C@H](C)N(C(=O)c2cc4cc(C5CCOC(C)(C)C5)ccc4n2[C@@]2(c4nc(=O)o[nH]4)C[C@@H]2C)CC3)cc(C)c1F` (some centres unmarked) [Compound 53] showed an EC50 of 25.5 nM.
